From article PMC4500398, “All-Purpose Containers? Lipid-Binding Protein – Drug Interactions” (PLoS ONE, 2015)

Assays:
[1] = biological target: T1, c-FABPL (fatty acid-binding protein from G. gallus liver) (Gallus gallus, UniProt P80226); assay: […]-NMR (T1, n.O.e.) and displacement by cholate; set-up: gene FABP1; purified from chicken liver, delipidated
T1 sequence (P80226 2-126): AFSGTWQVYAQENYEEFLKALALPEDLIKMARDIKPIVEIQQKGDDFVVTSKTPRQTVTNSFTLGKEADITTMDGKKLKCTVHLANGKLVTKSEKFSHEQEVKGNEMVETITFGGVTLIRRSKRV

[2] = biological target: T1, c-FABPL (fatty acid-binding protein from G. gallus liver); assay: […]-NMR titration with […]-enriched ligand; […]-NMR competition; set-up: gene FABP1; apo protein, purified from chicken liver
[3] = biological target: T1, c-FABPL (fatty acid-binding protein from G. gallus liver); assay: […]-NMR titration (n.O.e., T1) and competition with cholate; set-up: gene FABP1; purified from chicken liver, delipidated
[4] = biological target: T1, c-FABPL (fatty acid-binding protein from G. gallus liver); assay: […]-NMR titration with […]-enriched ligand; set-up: gene FABP1; apo protein, purified from chicken liver

CCCCCCCCCCCCCCC(F)C(=O)O (stereo not shown) [16–17, 2-fluoropalmitate]
19F-NMR (T1, n.O.e.) and displacement by cholate [1]: only using a tenfold excess of cholate the ligand was completely removed from the protein

C[C@H](CCC(=O)O)[C@H]1CC[C@H]2[C@@H]3[C@H](O)C[C@@H]4C[C@H](O)CC[C@]4(C)[C@H]3C[C@H](O)[C@]12C [compound 7, cholate]
13C-NMR titration with 13C-enriched ligand; 19F-NMR competition [2]: The titration indicates two sites of comparable affinity for cholate, and of different affinity for glycocholate

CC(C)n1c(/C=C/[C@@H](O)C[C@@H](O)CC(=O)O)c(-c2ccc(F)cc2)c2ccccc21 (relative stereo) [compound 14, fluvastatin]
19F-NMR titration (n.O.e., T1) and competition with cholate [3]: Symmetric competition experiments between fluvastatin and cholate

C[C@H](CCC(=O)NCC(=O)O)[C@H]1CC[C@H]2[C@@H]3[C@H](O)C[C@@H]4C[C@H](O)CC[C@]4(C)[C@H]3C[C@H](O)[C@]12C [glycocholate]
13C-NMR titration with 13C-enriched ligand [4]: The titration indicates two sites of comparable affinity for cholate, and of different affinity for glycocholate
